We go through 5 compounds from patent US5824785A, “Dyes for ink jet printing” (Ilford Imaging Switzerland GmbH, priority 1995, dated 1998).

Values after ≈ are worked out from the molar mass of the structure shown.

This data set is described as follows: solubility of the dyes in water. It counts as physicochemical. The conditions noted are these: excess dye stirred 1 h at 50° C., cooled to 20° C., filtered, spectroscopic determination, read-out: Solubility (in g per 100 ml). Here is the method: The solubilities of the dyes according to the invention were determined as follows:
An excess of dye was heated at 50° C. in water with stirring for one hour. The mixture was then cooled down to 20° C. and filtered, and the dye content of the clear solution was determined spectroscopically.

The term solubility denotes the concentration that dissolves in the medium under given conditions. As for `COc1cc(N=Nc2c(N)ccc3cc(S(=O)(=O)O)cc(O)c23)c(C)cc1Nc1nc(NCCO)nc(Nc2cccc(S(=O)(=O)O)c2)n1` [dye 1, reference compound], the solubility worked out at 200 mg/mL (≈ 281 mM). The result for `CN(CCO)c1nc(NCCS(=O)(=O)O)nc(Nc2ccc(N=Nc3c(N)ccc4cc(S(=O)(=O)O)cc(O)c34)c(S(=O)(=O)O)c2)n1` [compound 100] reads 350 mg/mL (≈ 490 mM); that for `Nc1ccc2cc(S(=O)(=O)O)cc(O)c2c1N=Nc1ccc(Nc2nc(NCCS(=O)(=O)O)nc(N(CCO)CCO)n2)cc1S(=O)(=O)O` [compound 101], 320 mg/mL (≈ 430 mM); that for `Nc1ccc2cc(S(=O)(=O)O)cc(O)c2c1N=Nc1ccc(Nc2nc(NCCS(=O)(=O)O)nc(NCCS(=O)(=O)O)n2)cc1S(=O)(=O)O` [compound 102], 260 mg/mL (≈ 340 mM). On to `CCCCCCNc1nc(NCCCCCC)nc(Nc2cc(S(=O)(=O)O)cc3cc(S(=O)(=O)O)c(N=Nc4ccccc4S(=O)(=O)O)c(O)c23)n1` [dye 5, reference compound], for which the solubility amounted to 150 mg/mL (≈ 192 mM).
